The record followed here is patent publication US20070049515A1, “Therapeutic agent for diabetes containing insulin resistance improving agent” (SANKYO COMPANY, LIMITED, priority 2005, published 2007).

Each structure is given as a SMILES string.

Holding throughout (type): in vivo, rat
For data set [1], the system named is Zucker diabetic fatty rats. The data set is described as follows: Administration of the effective and low doses of compound A in combination (Example 1(a)): blood glucose level, red blood cell count, heart weight. The note with it: for red blood cell count: FIG. 2; for heart weight: FIG. 3; for blood glucose level (mean) after the decrease to the low dose: oral once a day, from the 14th day on. An excerpt:
Zucker diabetic fatty rats (9-week-old, from Charles River Laboratories Japan, Inc.) were used in the experiment. The rats were divided into 4 groups of 5 individuals each so that body weight, blood glucose level, and red blood cell count may each be uniform among the groups, and each of these groups served as a low-dose treatment group (Ia), a low-dose treatment group (Ib), a continuous treatment group, or a control group. Food (FR2, from Funabashi Nojo) and water were given ad libitum during the testing period. A 0.5% carboxymethyl cellulose (CMC) solution only was administered to the control group, and a CMC suspension of compound A was orally administered to all of the other groups, once a day in doses described below. For the low-dose treatment group (Ia), it was administered at 3 mg/kg for 2 weeks and then at a decreased dose of 0.03 mg/kg for a further 3 weeks. For the low-dose treatment group (Ib), it was administered at 3 mg/kg for 2 weeks and then at a decreased dose of 0.3 mg/kg for a further 3 weeks. For the continuous treatment group, 3 mg/kg was administered for 5 weeks. Blood was collected every 7 days from the start of administration using a capillary tube treated with heparin and EDTA, and blood glucose level and blood cell parameters were determined using an autoanalyzer (blood glucose level: Glucoroder GX-T from A&T Corporation), blood cell parameters: KX-21N from Sysmex Corporation).

For data set [2], the system named is Zucker diabetic fatty rats. The data set is described as follows: Cycle of one week full coverage followed by four weeks of reduced dosage (Example 1(b)). The note with it: one week full coverage (3 mg/kg) followed by four weeks of reduced dosage (0.3 mg/kg).
The subject of data set [3] is Zucker diabetic fatty rats. The data set is described as follows: Intermittent administration of compound A (Example 2): blood glucose level, red blood cell count, heart weight. The note with it: for blood glucose level: FIG. 4; for red blood cell count: FIG. 5; for heart weight: FIG. 6. An excerpt:
Zucker diabetic fatty rats (9-week-old, from Charles River Laboratories Japan, Inc.) were used in the experiment. The rats were divided into 3 groups so that body weight, blood glucose level, and red blood cell count may each be uniform among the groups, and each of these groups served as a control group, an intermittent treatment group, or a continuous treatment group (n=4 to 5). Food (FR2, from Funabashi Nojo) and water were given ad libitum during the testing period. A 0.5% carboxymethyl cellulose (CMC) solution only was administered to the control group, and a CMC suspension of compound A was forcibly orally administered to the intermittent treatment group and continuous treatment group according to the regimen described below. For the intermittent treatment group, compound A was repeatedly given in a dose of 1 mg/kg once a day for one week before decreasing the administration thereof to twice a week to administer it for a further two weeks (dosing days: days 0 to 7, 10, 14, and 17). In this respect, the CMC solution was given on the days when compound A was not administered. For the continuous treatment group, 1 mg/kg was repeatedly administered once a day for three weeks. Blood was collected at days 0, 2, 5, 7, 9, 12, 14, 16, 19, and 21 when the start date of dosing was shown as day 0, using a capillary tube treated with heparin, and blood glucose level and blood cell parameters were determined using an autoanalyzer (blood glucose level: Glucoroder GX-T from A&T Corporation, blood cell parameters: KX-21N from Sysmex Corporation)

Where [4] appears, read: continuous treatment group: 3 mg/kg orally once a day for 5 weeks.
[5] abbreviates: low-dose treatment group (Ia): 3 mg/kg for 2 weeks, then 0.03 mg/kg for 3 weeks.
Setting [6] is: low-dose treatment group (Ib): 3 mg/kg for 2 weeks, then 0.3 mg/kg for 3 weeks.
The mark [7] stands for this setting: continuous treatment group: 1 mg/kg orally once a day for three weeks.
Where [8] appears, read: intermittent treatment group: 1 mg/kg once a day for one week, then twice a week for two weeks.

With `COc1ccc2nc(COc3ccc(CC4SC(=O)NC4=O)cc3)n(C)c2c1.Cl` (stereo not shown) [compound A, 5-[4-(6-methoxy-1-methyl-1H-benzimidazol-2-ylmethoxy)benzyl]thiazolidin-2,4-dione hydrochloride], the blood glucose level result in data set [1] (continuous treatment group: 3 mg/kg orally once a day for 5 weeks, FIG. 1) is “lowered to a normal value”; in data set [3] (setting [7]), “lowered to a normal range”; in data set [3] (setting [8]) it was “nearly the same level as that in the continuous treatment group”. Further, the “red blood cell count” value in data set [1] (setting [4]) is on record as “hemodilution (a decrease in red blood count)”; in data set [1] (setting [5]) it was “recovered nearly to control level”; in data set [1] (setting [6]), “rapidly recovered in dose-dependent manner”; in data set [3] (setting [7]), “hemodilution (a decrease in red blood cell count)”; in data set [3] (setting [8]) it was “an increase in red blood cell count”. Moreover, the heart weight result is given as “marked increase in heart weight” in data set [1] (setting [4]); “clearly decreased values compared to that in the continuous treatment group” in data set [1] (setting [5]); “clearly decreased values compared to that in the continuous treatment group” in data set [1] (setting [6]); “marked increase in heart weight” in data set [3] (setting [7]); “decreased in value compared to that in the continuous treatment group” in data set [3] (setting [8]). The “blood glucose level (mean) after the decrease to the low dose” value is reported as ≤ 300 mg/dL in data set [1] (low-dose treatment group (Ia): 3 mg/kg for 2 weeks, then 0.03 mg/kg for 3 weeks, FIG. 1) and ≤ 300 mg/dL in data set [1] (low-dose treatment group (Ib): 3 mg/kg for 2 weeks, then 0.3 mg/kg for 3 weeks, FIG. 1). Besides, in data set [2], the “results (blood glucose level, red blood cell count, heart weight) compared with Example 1(a)” value is “Almost the same results to those described above”.
